Source: ChEMBL document CHEMBL1201862, “PubChem BioAssay data set” (2004)
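Growth conditions: 96-well plates. Treatment: test compound, 48 hours, 5 concentrations. Analysis: linear interpolation between bracketing concentrations; unreached endpoints set to highest concentration. GI50 = concentration required for 50% inhibition of growth.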 Calls of active or inactive are those of the source. Cut-off read from the data, not from the text of the source: active = GI50 up to about 1.1 µM and inactive = higher. Where a SMILES comes first, the peptide text is derived from it. The star is where a group is joined. Boc = CC(C)(C)OC(=O)*; nBu = CCCC*

Key:
Assay in all cases: DTP human tumour cell line panel, 48 h
A549 = tested on: A549
RXF 393 = tested on: RXF 393
UACC-62 = tested on: UACC-62
SF-295 = tested on: SF-295
NCI-H522 = tested on: NCI-H522
A498 = tested on: A498
MOLT-4 = tested on: MOLT-4
U-251 = tested on: U-251
HCT-15 = tested on: HCT-15
SR = tested on: SR
HCT-116 = tested on: HCT-116
TK-10 = tested on: TK-10
HOP-62 = tested on: HOP-62
Malme-3M = tested on: Malme-3M
CCRF-CEM = tested on: CCRF-CEM
MDA-MB-435 = tested on: MDA-MB-435
SNB-75 = tested on: SNB-75
PC-3 = tested on: PC-3
SK-MEL-2 = tested on: SK-MEL-2
MCF7 = tested on: MCF7

Compound	GI50 (A549)	GI50 (RXF 393)	GI50 (UACC-62)	GI50 (SF-295)	GI50 (NCI-H522)	GI50 (A498)	GI50 (MOLT-4)	GI50 (U-251)	GI50 (HCT-15)	GI50 (SR)	GI50 (HCT-116)	GI50 (TK-10)	GI50 (HOP-62)	GI50 (Malme-3M)	GI50 (CCRF-CEM)	GI50 (MDA-MB-435)	GI50 (SNB-75)	GI50 (PC-3)	GI50 (SK-MEL-2)	GI50 (MCF7)
COC1C(O)C(C)OC(O[C@@H]2C[C@H]3CC[C@@H]4[C@H](CC[C@]5(C)[C@@H](C6=CC(=O)OC6)CC[C@]45O)[C@@]3(C)[C@H](O)C2)C1O (stereo partly drawn)	< 0.0221 µM (active)	< 0.0161 µM (active)	0.142 µM (active)	< 0.0371 µM (active)	< 0.01 µM (active)	0.0525 µM (active)	< 0.0162 µM (active)	0.0849 µM (active)	0.0826 µM	0.0766 µM (active)	< 0.0225 µM (active)	0.0361 µM (active)	0.0333 µM (active)	< 0.0396 µM (active)	0.0559 µM (active)	0.0883 µM (active)	0.126 µM (active)	0.0755 µM (active)	0.114 µM (active)	
Cc1ccc(SCC(CF)OC(C)n2cnc3c(O)nc(N)nc32)cc1 (stereo not drawn)	> 100 µM (inactive)		> 100 µM (inactive)	> 100 µM (inactive)	> 100 µM (inactive)		50.5 µM (inactive)	> 100 µM (inactive)	> 100 µM	98.4 µM (inactive)	> 100 µM (inactive)	> 100 µM (inactive)	> 100 µM (inactive)	> 100 µM (inactive)	> 100 µM (inactive)	63.8 µM (inactive)	> 100 µM (inactive)	> 100 µM (inactive)	> 100 µM (inactive)	34.9 µM (inactive)
COc1ccc(CC2Cc3ccccc3CCN2)cc1OC (stereo not drawn)	29.8 µM (inactive)	12 µM (inactive)	> 50 µM (inactive)	> 50 µM (inactive)		> 50 µM (inactive)	20.3 µM (inactive)	> 50 µM (inactive)	> 50 µM		20.9 µM (inactive)		40.5 µM (inactive)	25.5 µM (inactive)	28.5 µM (inactive)	> 50 µM (inactive)	31.1 µM (inactive)	> 50 µM (inactive)	> 50 µM (inactive)	> 50 µM (inactive)
CCCCOc1ccc(CC(NC(=O)OC(C)(C)C)C(=O)NC(C)C(=O)NC(Cc2ccccc2)C(=O)NCC(N)=O)cc1 (stereo not drawn) (Boc-Y(nBu)AFG-NH2; configuration not given here)	> 100 µM (inactive)	> 100 µM (inactive)	> 100 µM (inactive)	> 100 µM (inactive)	66.5 µM (inactive)	> 100 µM (inactive)	23 µM (inactive)	59.4 µM (inactive)	> 100 µM		> 100 µM (inactive)	> 100 µM (inactive)	> 100 µM (inactive)	> 100 µM (inactive)	24.3 µM (inactive)	> 100 µM (inactive)	> 100 µM (inactive)	> 100 µM (inactive)	18.7 µM (inactive)	41.1 µM (inactive)
O=C(/C=C/c1cccs1)c1ccc(C(=O)/C=C/c2cccs2)cc1	> 100 µM (inactive)		> 100 µM (inactive)	> 100 µM (inactive)	> 100 µM (inactive)	> 100 µM (inactive)	> 100 µM (inactive)	> 100 µM (inactive)	> 100 µM	> 100 µM (inactive)		> 100 µM (inactive)	> 100 µM (inactive)	> 100 µM (inactive)		> 100 µM (inactive)	> 100 µM (inactive)	> 100 µM (inactive)		
CCN(CC)Cc1sc2nc3ccccc3n2c1-c1ccc(OC)cc1	31.8 µM (inactive)	26.2 µM (inactive)	34.8 µM (inactive)	24.5 µM (inactive)	4.11 µM (inactive)	22.9 µM (inactive)	19.6 µM (inactive)	29.2 µM (inactive)	12.6 µM		26.6 µM (inactive)	79.6 µM (inactive)	65.5 µM (inactive)	17.2 µM (inactive)	17.1 µM (inactive)	3.05 µM (inactive)	33.8 µM (inactive)	17.4 µM (inactive)	43.4 µM (inactive)	23 µM (inactive)
COC(=O)[C@@H](Nc1ccccc1)[C@@]1(C(=O)OC)SC12c1ccccc1-c1ccccc12	44.8 µM (inactive)	71.3 µM (inactive)	45.2 µM (inactive)	> 100 µM (inactive)	22 µM (inactive)	> 100 µM (inactive)	24.4 µM (inactive)	44.1 µM (inactive)	23.9 µM		12.8 µM (inactive)	> 100 µM (inactive)	> 100 µM (inactive)	49.7 µM (inactive)	39.4 µM (inactive)	54.8 µM (inactive)		35 µM (inactive)	74.6 µM (inactive)	34.2 µM (inactive)
CC[C@@]1(N(C)C)C(=O)OCc2c1cc1n(c2=O)Cc2cc3ccccc3nc2-1	61 µM (inactive)	13.7 µM (inactive)	22.1 µM (inactive)	16.1 µM (inactive)	12.7 µM (inactive)	42.7 µM (inactive)		29.2 µM (inactive)	45.3 µM		33.1 µM (inactive)	48.2 µM (inactive)	16.9 µM (inactive)	20.2 µM (inactive)	18.5 µM (inactive)	> 100 µM (inactive)	12.8 µM (inactive)	58.3 µM (inactive)	26.4 µM (inactive)	32.1 µM (inactive)
